For series [1], the system named is rat spontanément hypertendu (S.H.R.). Kind of series: Antihypertensive activity in the spontaneously hypertensive rat (SHR). In kind it is in vivo. Particulars: for minimal effective dose: Rattus norvegicus, read-out: Activité anti-hypertensive SHR Dose minimale active.
The next series in a line: Acute toxicity (DL 50). As to conditions: in vivo.
Series [2] relates to souris. As to the kind of experiment: Spontaneous motility. In kind it is in vivo. Particulars: I.P.
Series [3] has as its system souris. As to the kind of experiment: Antagonism of amphetamine hypermotility. In kind it is in vivo. As to conditions: I.P.
Series [4] concerns souris. As to the kind of experiment: Exploratory activity. It counts as in vivo. As to conditions: Mus musculus, ip; I.P.; read-out: diminue l'activité d'exploration D.E.50.
In series [5] the test system is souris. As to the kind of experiment: Motor incoordination. It counts as in vivo. As to conditions: I.P.
The test system of series [6] is souris. Kind of series: Hypothermia. As to conditions: I.P. In kind it is in vivo.
For series [7], the system named is souris. Kind of series: Analgesic activity, P.B.Q. test. As to conditions: in vivo.
Series [8] concerns souris. As to the kind of experiment: Analgesic activity, hot plate. It counts as in vivo. As to conditions: I.P.
The test system of series [9] is souris. Kind of series: Potentiation of barbiturate sleep. In kind it is in vivo. Particulars: I.P.
Series [10] relates to souris. Kind of series: Yohimbine test. As to conditions: in vivo.
Series [11] relates to souris. Kind of series: Apomorphine test. As to conditions: in vivo.
Series [12] has as its system souris. Kind of series: Oxotremorine test. In kind it is in vivo. Particulars: à forte dose.
Another series has as its system rat. As to the kind of experiment: Anti-inflammatory activity, carrageenan test. As to conditions: I.P. In kind it is in vivo.
Another series concerns rat normotendu. Kind of series: Cardiovascular effects in the normotensive rat. In kind it is in vivo. As to conditions: 50 mg.kg^-1 I.P.

The record followed here is patent EP0294258A1, “Hydrazine derivatives, process for obtaining them and pharmaceutical composition containing them” (priority 1987, dated 1988).

SMILES strings stand for the structures. Like-named read-outs stand apart in the source and are kept apart here.

Turning to `CC(C)(O)C(=O)NN=Cc1ccccc1Cl` [1a, reference compound], the “Activité anti-hypertensive SHR Dose minimale active” value in series [1] (route not given) was “inactif”. Also, the LD50 – broadly, the dose expected to kill half of the subjects tested – in “Acute toxicity (DL 50)” (ip, I.P.) stood at 490 mg/kg.
For `CC(=NNC(=O)C(C)(C)O)c1ccc(Cl)cc1` [1b, reference compound], the “Activité anti-hypertensive SHR Dose minimale active” value in series [1] (route not given) is “inactif”. Further, in “Acute toxicity (DL 50)” (ip, I.P.), the LD50 was determined as 150 mg/kg.
On to `CC(C)(O)C(=O)NN=Cc1ccc(Cl)cc1` [1c, reference compound], for which, in [1] (route not given), the “Activité anti-hypertensive SHR Dose minimale active” value was “inactif”. Moreover, the LD50 in the series “Acute toxicity (DL 50)” (ip, I.P.) was determined as 660 mg/kg.
For `CC(C)(O)CC(=O)NN=Cc1ccccc1Cl` [1d, reference compound] the same measures were “inactif” and 433 mg/kg.
For `CC(=NNC(=O)CC(C)(C)O)c1ccccc1Cl` [1e, reference compound] the same measures were “inactif” and 227 mg/kg.
Regarding `CC(O)C(=O)NN=Cc1ccccc1Cl` (stereo not shown) [3a, reference compound], the “Activité anti-hypertensive SHR Dose minimale active” value in series [1] (route not given) is reported as “inactif”. The same molecule had an LD50 in “Acute toxicity (DL 50)” (route not given) of 300 mg/kg.
In the case of `COCC(=O)NN=Cc1ccccc1Cl` [6a, reference compound], the “Activité anti-hypertensive SHR Dose minimale active” value in [1] (route not given) is reported as “inactif”. Further, the LD50 in “Acute toxicity (DL 50)” (ip, I.P.) amounted to 477 mg/kg.
`NCC(=O)NN=Cc1ccccc1Cl` [7a, reference compound]: the “Activité anti-hypertensive SHR Dose minimale active” value in [1] (route not given) is reported as “inactif”. For the same molecule, the LD50 in “Acute toxicity (DL 50)” (ip, I.P.) was determined as 360 mg/kg.
The like results for `NC(=O)C(=O)NN=Cc1ccccc1Cl` [9a, reference compound] were, in that order, “inactif” and > 400 mg/kg.
With `CC(=NNC(=O)C(C)(C)O)c1ccccc1Cl` [Exemple 1, (hydroxy-2 isobutyroyl)-1 (orthochlorophényl-1 éthylidène-1)-2 hydrazine], in series [1] (po, P.O.), the minimal effective dose stood at 2 mg/kg. In addition, the fréquence cardiaque entry in [1] (administration P.O.) is listed as “n'est pas modifiée de manière significative”. In addition, the action antihypertensive entry in series [1] (administration répétée sur 5 jours, 1,5 mg.kg^-1 P.O.) is listed as “confirment l'action antihypertensive”. In addition, in [1] (administration unique, I.P.), the “diminue la pression artérielle du rat spontanément hypertendu (S.H.R.) D.E.so” value was 1,9 mg.kg^-1. In addition, the “action antihypertensive D.E.50” value in series [1] (administration unique, P.O.) turned out to be 2 mg/kg. Further, the “activité antihypertensive (dose)” value in series [1] (per os, rat SHR printed for MP 440 only) is on record as 2 mg/kg. The LD50 in the series “Acute toxicity (DL 50)” (ip, I.P.) is 482 mg/kg. In addition, in the series on souris [2], the “diminue la motilité spontanée D.E.50” value is 10 mg/kg. Besides, in the series on souris [3], the “antagonise l'hypermotilité amphétaminique à partir de (dose)” value was ≥ 12,5 mg.kg^-1. Further, the ED50 with souris [4] was determined as 27 mg/kg. Moreover, the “incoordination motrice uniquement à forte dose” value with souris [5] amounted to 50 mg/kg. The “hypothermie uniquement à forte dose” value in the series with souris [6] came out at 50 mg/kg. Besides, the “activité analgésique au test à la P.B.Q.” value in the series on souris [7] was “faible”. Moreover, the “activité analgésique "plaque chauffante" D.E.50” value with souris [8] turned out to be 6 mg/kg. The “potentialise le sommeil barbiturique dès la dose de” value with souris [9] is on record as ≥ 12,5 mg.kg^-1. In the series on souris [10], the “test de la yohimbine” value is recorded as “inactif”. Moreover, the “test à l'apomorphine” value with souris [11] is given as “inactif”. Further, the “test à l'oxotrémorine” value in the series with souris [12] is “modifie de façon peu nette”. Also, in the series with rat, the “anti-inflammatoire sur le test à la carraghénine D.E.so” value turned out to be 38 mg/kg. Further, in the series on rat normotendu, the “pression artérielle du rat normotendu” value is listed as “sans modifier” and the “rythme cardiaque du rat normotendu” value is reported as “augmente significativement”.
Regarding `CC(=NNC(=O)C(C)O)c1ccccc1Cl` (stereo not shown) [Exemple 3, (hydroxy-2 propanoyl)-1 (orthochlorophényl-1 éthylidène-1)-2 hydrazine], the minimal effective dose in [1] (ip, I.P.) amounted to 12.5 mg/kg. In the series “Acute toxicity (DL 50)” (ip, I.P.), this molecule yielded an LD50 of 240 mg/kg.
For `CC(=NNC(=O)CO)c1ccccc1Cl` [Exemple 4, (hydroxy-2 acétyl)-1 (orthochlorophényl-1 éthylidène-1)-2 hydrazine], in [1] (route not given), the minimal effective dose is 3.13 mg/kg. The LD50 in the series “Acute toxicity (DL 50)” (ip, I.P.) came out at 583 mg/kg.
Turning to `COCC(=O)NN=C(C)c1ccccc1Cl` [Exemple 6, (méthoxy-2 acétyl)-1 (orthochlorophényl-1 éthylidène-1)-2 hydrazine], in series [1] (ip, I.P.), the minimal effective dose is 6.25 mg/kg. The LD50 in the series “Acute toxicity (DL 50)” (ip, I.P.) worked out at 200 mg/kg.
Turning to `CC(=NNC(=O)CN)c1ccccc1Cl` [Exemple 7, (amino-2 acétyl)-1 (orthochlorophényl-1 éthylidène-1)-2 hydrazine], the minimal effective dose in series [1] (po, P.O.) stood at 2 mg/kg. This molecule showed an LD50 in “Acute toxicity (DL 50)” (ip, I.P.) of 143 mg/kg.
With `CSCC(=O)NN=C(C)c1ccccc1Cl` [Exemple 8, (méthylthio-2 acétyl)-1 (orthochlorophényl-1 éthylidène-1)-2 hydrazine], in series [1] (ip, I.P.), the minimal effective dose came to 12.5 mg/kg. Further, in “Acute toxicity (DL 50)” (ip, I.P.), the LD50 was > 400 mg/kg.
The like results for `CC(=NNC(=O)C(N)=O)c1ccccc1Cl` [Exemple 9, oxamoyl-1 (orthochlorophényl-1 éthylidène-1)-2 hydrazine] were, in that order, 12.5 mg/kg and > 400 mg/kg.
For `CCC(=NNC(=O)C(C)(C)O)c1ccccc1Cl` [Exemple 16, (hydroxy-2 isobutyroyl)-1 (orthochlorophényl-1 propylidène-1)-2 hydrazine] the same measures were 6.25 mg/kg and 179 mg/kg.
The like results for `CCCCC(=NNC(=O)C(C)(C)O)c1ccccc1Cl` [Exemple 26, (hydroxy-2 isobutyroyl)-1 (chloro-2 phényl-1 pentylidène-1)-2 hydrazine] were, in that order, 6.25 mg/kg and > 400 mg/kg.
